Reference: ChEMBL document CHEMBL4813973, “Discovery of novel N-benzylbenzamide derivatives as tubulin polymerization inhibitors with potent antitumor activities” (Eur J Med Chem, 2021)
pIC50: −log10 of the molar value. ≈ marks a conversion by molar mass, not a printed value. Calls of active or inactive are those of the source. No cut-off for these calls is given here.

Tests used:
[1] = Induction of mitochondria membrane potential loss in human A-431 cells assessed as red fluorescence intensity at 7.5 nM incubated 48 hrs by JC-1 probe based flow cytometry analysis (reference value: 93.83%); assay type: functional
[2] = Induction of mitochondria membrane potential loss in human A-431 cells assessed as red fluorescence intensity at 15 nM incubated 48 hrs by JC-1 probe based flow cytometry analysis (reference value: 93.83%); assay type: functional
A-431 [3] = assay: Antiproliferative activity against human A-431 cells assessed as reduction in cell viability incubated for 72 hrs by MTT assay; assay type: functional, cell-based; conditions: A-431, 72 h
H22 [4] = assay: Antiproliferative activity against mouse H22 cells assessed as reduction in cell viability incubated for 72 hrs by MTT assay; assay type: functional, cell-based; conditions: H22, 72 h
L02 = assay: Cytotoxicity against human L02 cells assessed as reduction in cell viability incubated for 72 hrs by MTT assay; assay type: cell-based; conditions: L02, 72 h
Bel-7402 [5] = assay: Antiproliferative activity against human Bel-7402 cells assessed as reduction in cell viability incubated for 72 hrs by MTT assay; assay type: functional, cell-based; conditions: Homo sapiens, Bel-7402, 72 h; read-out: IC50
Bel-7402 [6] = assay: Antiproliferative activity against ADR-resistant human Bel-7402 cells assessed as reduction in cell viability incubated for 72 hrs by MTT assay; assay type: functional, cell-based; conditions: Homo sapiens, Bel-7402, 72 h; read-out: IC50
HCT-8 = assay: Antiproliferative activity against taxol-resistant human HCT-8 cells assessed as reduction in cell viability incubated for 72 hrs by MTT assay; assay type: functional, cell-based; conditions: Homo sapiens, HCT-8, 72 h; read-out: IC50
K562/VCR = assay: Antiproliferative activity against VCR resistant human K562/VCR cells assessed as reduction in cell viability incubated for 72 hrs by MTT assay; assay type: functional, cell-based; conditions: Homo sapiens, K562/VCR, 72 h; read-out: IC50
[7] = Resistant index, ratio of IC50 for VCR resistant human K562 cells to IC50 for human K562 cells; assay type: functional
[8] = Aqueous solubility of the compound in aqueous HCl at pH 2 by HPLC-UV analysis; assay type: physicochemical
[9] = n-Octanol/water partition coefficient, logD of the compound incubated for 24 hrs at pH 7.4 by HPLC analysis; assay type: physicochemical
[10] = Inhibition of pig brain tubulin polymerisation incubated for 30 mins and measured every 2 mins for 60 mins by spectrophotometric method; assay type: tissue-based, Sus scrofa
A-431 [11] = assay: Induction of cell cycle arrest in human A-431 cells assessed as accumulation at G1 phase at 7.5 nM after 48 hrs by propidium iodide staining based flow cytometry (reference value: 41.16%); assay type: functional
A-431 [12] = assay: Induction of cell cycle arrest in human A-431 cells assessed as accumulation at S phase at 7.5 nM after 48 hrs by propidium iodide staining based flow cytometry (reference value: 46.57%); assay type: functional
A-431 [13] = assay: Induction of cell cycle arrest in human A-431 cells assessed as accumulation at G2 phase at 7.5 nM after 48 hrs by propidium iodide staining based flow cytometry (reference value: 7.27%); assay type: functional
A-431 [14] = assay: Induction of cell cycle arrest in human A-431 cells assessed as accumulation at S phase at 15 nM after 48 hrs by propidium iodide staining based flow cytometry (reference value: 46.57%); assay type: functional
A-431 [15] = assay: Cell cycle arrest in human A-431 cells assessed as downregulation of p-histone H3 expression by Western blot analysis; assay type: functional, cell-based; conditions: dose 7.5-30 nM
A-431 [16] = assay: Induction of apoptosis in human A-431 cells assessed as necrotic cells at 7.5 nM after 48 hrs by Annexin-V-APC/PI-staining based flow cytometric analysis (reference value: 3.79%); assay type: functional
A-431 [17] = assay: Induction of apoptosis in human A-431 cells assessed as early apoptotic cells at 15 nM after 48 hrs by Annexin-V-APC/PI-staining based flow cytometric analysis (reference value: 0.82%); assay type: functional
A-431 [18] = assay: Induction of apoptosis in human A-431 cells assessed as late apoptotic cells at 15 nM after 48 hrs by Annexin-V-APC/PI-staining based flow cytometric analysis (reference value: 2.02%); assay type: functional
A-431 [19] = assay: Induction of apoptosis in human A-431 cells assessed as viable cells at 30 nM after 48 hrs by Annexin-V-APC/PI-staining based flow cytometric analysis (reference value: 93.37%); assay type: functional; conditions: read-out: Activity
A-431 [20] = assay: Induction of apoptosis in human A-431 cells assessed as necrotic cells at 30 nM after 48 hrs by Annexin-V-APC/PI-staining based flow cytometric analysis (reference value: 3.79%); assay type: functional
A-431 [21] = assay: Induction of apoptosis in human A-431 cells assessed as activation of caspase 3 by western blot analysis; assay type: functional, cell-based; conditions: dose 7.5-30 nM
A-431 [22] = assay: Induction of apoptosis in human A-431 cells assessed as increase in cleaved PARP expression at 7.5 to 30 nM by western blot analysis; assay type: functional, cell-based; conditions: dose 7.5-30 nM
[23] = Induction of mitochondria membrane potential loss in human A-431 cells assessed as red fluorescence intensity at 30 nM incubated for 48 hrs by JC-1 probe based flow cytometry analysis (reference value: 93.83%); assay type: functional
[24] = Induction of mitochondria membrane potential loss in human A-431 cells assessed as green fluorescence intensity at 30 nM incubated for 48 hrs by JC-1 probe based flow cytometry analysis (reference value: 5.98%); assay type: functional
[25] = Metabolic stability in rat plasma assessed as parent compound remaining at 100 nM measured after 60 mins by HPLC analysis; assay type: ADME, cell-free; conditions: 1 h, 0.1 µM
[26] = Metabolic stability in rat plasma assessed as parent compound remaining at 100 nM measured after 3 hrs by HPLC analysis; assay type: ADME, cell-free; conditions: read-out: Stabilty
[27] = Toxicity in ICR mouse xenografted with […] cells assessed as effect on body weight at 20 mg/kg/day, iv for 21 days; assay type: organism-based; conditions: in vivo, 504 h, time 21 day
HUVEC = assay: Antivascular activity in HUVEC assessed as inhibition of capillary like tube formation at 30 nM incubated for 6 hrs by matrigel based inverted fluorescence microscopic analysis; assay type: functional, cell-based; conditions: Homo sapiens
A-431 [28] = assay: Induction of ROS generation in human A-431 cells at 30 nM incubated for 48 hrs by DCFH-DA dye based fluorescence microscopy (reference value: 6.17%); assay type: functional
H22 [29] = assay: Antitumor activity against […] xenografted in ICR mouse assessed as reduction of tumor weight at 10 mg/kg/day, iv for 21 days; assay type: functional; conditions: 504 h, time 21 day
A-431 [30] = assay: Induction of ROS generation in human A-431 cells incubated for 48 hrs by DCFH-DA dye based flow cytometry; conditions: dose 7.5-30 nM

pIC50 (A-431 [3]): 7.85 | pIC50 (Bel-7402 [5]): 7.57 | pIC50 (Bel-7402 [6]): 6.98 | pIC50 (HCT-8): 6.97 | pIC50 (K562/VCR): 6.69 | solubility [8]: 323 µg/mL (≈ 897 µM) | logD at 24 h [9]: 1.61 | pIC50 [10]: 5.52 | Stabilty [25]: Stable | remaining at 3 h, 0.1 µM [26]: 91.5%
SMILES: COc1ccc(CNC(=O)c2cc(F)ccc2N2CCOCC2)cc1O
Activity [1]: 73.18% | Activity [2]: 54.43% | pIC50 (H22 [4]): 7.62 | pIC50 (L02): 6.95 | Ratio IC50 [7]: 10.8 | Activity (A-431 [11]): 46.14% | Activity (A-431 [12]): 40.02% | Activity (A-431 [13]): 13.84% | Activity (A-431 [14]): 22.59% | Activity (A-431 [15]): Dose-Dependent Effect | Activity (A-431 [16]): 8.23% | Activity (A-431 [17]): 18.35% | Activity (A-431 [18]): 26.43% | viability at 0.03 µM (A-431 [19]): 26.5% | Activity (A-431 [20]): 7.35% | Activity (A-431 [21]): Dose-Dependent Effect | Activity (A-431 [22]): Active | Activity [23]: 33.88% | Activity [24]: 65.96% | Activity [27]: Non-Toxic | Activity (HUVEC): Active | Activity (A-431 [28]): 21.99% | inhibition in vivo at 10 mg/kg/day (H22 [29]): 50.3% | Activity (A-431 [30]): Dose-Dependent Effect
